# Assay results as given in patent publication US8722649B2, “Alpha-chloro and alpha-bromo phosphonate analogs of lysophosphatidic acid and methods of making and using thereof” (University of Utah Research Foundation, priority 2007, dated 2014).
# Test system: MDA-MB-231 cells
# Assay: Orthotopic breast cancer xenograft
# Format: in vivo, nude mice
# Experimental: Orthotopic Human Breast Cancer Models. 4-week-old female athymic nude mice (Charles River Laboratories) were anesthetized by intraperitoneal injection of ketamine (80 mg/kg) and xylazine (10 mg/kg),according to the protocol approved by the University of Utah Institutional Animal Care and Use Committee (IACUC). Then the thoracic skin was sterilized with iodine and alcohol swabs.
# MDA-MB-231 were trypsinized and resuspended in 2.5% CMHA-S and 3% gelatin-DTPH (v:v=1:1). Then, one volume of 4% PEGDA solution was added to four volumes of the cell suspension, and the resulting suspension was mixed gently by vortexing. The final cell concentration was 5×10^7 cells/ml. When the cell suspension was becoming viscous (ca. 3-5 min at 20° C.), 200 uL of gel was injected subcutaneously into the fourth mammary fat pad of each mouse, using a total of six mice per group.
# The assessment of chemotherapy on breast cancer. The mice were randomly divided into 4 groups, including control (physiological saline), paclitaxel, LPA antagonist (19b), and paclitaxel followed by 19b. Six mice for each cell line were necessary to get statistically significant results according to literature. The control group received physiological saline i.p. injection twice per week starting at two weeks after the cell transplantation and ending at two weeks after the treatment. The treatment groups received i.p. administration of paclitaxel (10 mg/kg/day) or 19b (10 mg/kg/day) twice per week with the same period of control group. One additional group included 2 dose of paclitaxel followed by 2 dose of 19b with the same period of control group. The treatment was received […] twice per week for 2 weeks total.
# The body weight and tumor size were measured twice per week, and general clinical status of the animals was also assessed every day. Perpendicular tumor diameters were measured using a vernier scale caliper and tumor volume estimated using the formula for ellipsoid: […] (mm^3)=[width(mm)^2×length(mm)]/2. Data are expressed as median tumor areas with interquartile ranges.
# Animals were euthanized at 4 weeks postinjection or once any signs of broken skin caused by the extension of tumor are found. Tumors were excised with surrounding tissues for histological evaluation. Analysis of variance was used to analyze the statistical difference on tumor growth between different groups. The results are in FIG. 8, where it is shown that the volume of the tumors is the lowest when mice were treated with paclitaxel followed by the administration of 19b.
# Xenograft establishment and chemotherapy. […] The tumor sizes were measured and calculated by formula: tumor size (mm^3)=[width (mm)]^2×[length (mm)]/2. […]
smiles,measurement,setting,value
"CC(=O)O[C@H]1C(=O)[C@@]2(C)[C@H]([C@H](OC(=O)c3ccccc3)[C@]3(O)C[C@H](OC(=O)[C@H](O)[C@@H](NC(=O)c4ccccc4)c4ccccc4)C(C)=C1C3(C)C)[C@]1(OC(C)=O)CO[C@@H]1C[C@@H]2O [Taxol, reference compound]","tumor blood vessel density / angiogenesis (CD31), single agent",10 mg/kg i.p.,statistically different from the control
same,"tumor size, single agent",10 mg/kg i.p. twice per week for two weeks,reduction of tumor size
